Patent US7655420B2, “Methods to increase or decrease bone density” (Celltech R & D, Inc., priority 2002, dated 2010)
Entries after “also recorded” stand apart in the source; their conditions may differ.

Tests used:
SOST expression = experiment: BMP-6 induction of SOST expression in hMSC cells with test compounds (RT-PCR); assay type: cell-based, human; details: for Results (effect on BMP-6 induction of SOST expression): BMP-6, 72 hrs; for induction of SOST expression by BMP-6 (BMP-induced SOST expression): 72 hrs, no single concentration stated in the sentence
Protocol: The previous example illustrates that SOST expression was enhanced by bone morphogenetic proteins and modulated by steroids such as dexamethasone. In this example, human MSC cells were incubated with bone morphogenetic proteins in the presence of various test agents to determine whether other steroids and compounds could affect the BMP-induction of SOST. SOST expression was monitored by reverse transcriptase polymerase chain reaction (RT-PCR).
Human mesenchymal cells (hMSCs) were plated in regular growth media containing 2% FCS and treated with BMP-6 either alone or in combination with the test compounds. The cells were harvested 72 hrs later and RNA was prepared for RT-PCR analysis of SOST expression.

[1] = system: caspase activity in hMSC cells; experiment: apoptosis of hMSC cells by caspase activity (Homogeneous Caspase ELISA); assay type: cell-based, human; details: for human sclerostin-induced increase in caspase activity, effect of caspase inhibitors: hMSC cells, 24 hrs, Roche ELISA; for caspase activity: hMSC in osteoblast-inducing media, 20 μg/ml sclerostin or other protein, 24 hours
Protocol: Human mesenchymal (hMSC) cells were plated in Osteoblast-inducing media (Biowhittaker's MSCGM medium supplemented with 100 nM dexamethasone, 50 μg/ml ascorbic acid, and 10 mM β-glycerophosphate) at a density of 10,000 cells/cm^2 in 96-well dishes.
For apoptosis assays, cells were treated with sclerostin or commercially available preparations of the BMP antagonists noggin, chordin, gremlin or twisted gastrulation (Tsg) for 24 hours prior to assay for caspase activity. In some experiments, cells were treated for various times with a partially purified preparation of baculovirus-expressed human sclerostin (0 to 30 μg/ml) or an equal volume of a protein preparation purified from Sf9 conditioned media (control) in the absence or presence of Calbiochem's caspase inhibitors. Cells were harvested and processed for apoptosis assays using the Homogeneous Caspase ELISA (Roche) or Cell Death (Histone-Associated DNA Fragmentation, Roche).

C[C@]12CC[C@@H]3c4ccc(O)cc4C[C@@H](CCCCCCCCC[S+]([O-])CCCC(F)(F)C(F)(F)F)[C@H]3[C@@H]1CC[C@@H]2O (stereo partly shown) [ICI 182,780]
Results (effect on BMP-6 induction of SOST expression) (SOST expression; compound at 1 × 10^−6 M): minimal effects; also recorded: No Effect

CCc1[nH]c(-c2ccc(OC)cc2)nc1-c1ccncc1 [SB202474]
Results (effect on BMP-6 induction of SOST expression) (SOST expression; compound at 2 × 10^−6 M): No Effect

O=C1C=C(S(=O)(=O)O)c2ccccc2C1=O [1,2-napthoquinone-4-sulfate]
Results (effect on BMP-6 induction of SOST expression) (SOST expression; compound at 1 × 10^−6 M): No Effect | Results (effect on BMP-6 induction of SOST expression) (SOST expression; compound at 5 × 10^−6 M): No Effect

COc1cccc(-c2cc(=O)c3ccccc3o2)c1N [PD98059]
Results (effect on BMP-6 induction of SOST expression) (SOST expression; compound at 2 × 10^−6 M): No Effect

CC[C@H](C)C(=O)O[C@H]1C[C@@H](C)C=C2C=C[C@H](C)[C@H](CC[C@@H]3C[C@@H](O)CC(=O)O3)[C@H]21 [Lovastatin/Mevinolin, Lovastatin]
Results (effect on BMP-6 induction of SOST expression) (SOST expression; compound at 1 × 10^−7 M): No Effect | Results (effect on BMP-6 induction of SOST expression) (SOST expression; compound at 1 × 10^−7 M, listed as lovastatin): minimal effects

CC(=O)S[C@@H]1CC2=CC(=O)CC[C@]2(C)[C@H]2CC[C@@]3(C)[C@@H](CC[C@@]34CCC(=O)O4)[C@H]12 [Spironolactone]
Results (effect on BMP-6 induction of SOST expression) (SOST expression; compound at 1 × 10^−6 M): No Effect | Results (effect on BMP-6 induction of SOST expression) (SOST expression; compound at 1 × 10^−7 M): No Effect

C[C@H](CCC(=O)NCCS(=O)(=O)O)[C@H]1CC[C@H]2[C@@H]3[C@@H](O)C[C@@H]4C[C@H](O)CC[C@]4(C)[C@H]3CC[C@]12C [Tauroursodeoxycholic acid]
Results (effect on BMP-6 induction of SOST expression) (SOST expression; compound at 2 × 10^−6 M): No Effect | Results (effect on BMP-6 induction of SOST expression) (SOST expression; compound at 2 × 10^−6 M, listed as tauroursodeoxycholic acid): minimal effects | Results (effect on BMP-6 induction of SOST expression) (SOST expression; compound at 2 × 10^−7 M): No Effect

CC1(C)O[C@@H]2C[C@H]3[C@@H]4C[C@H](F)C5=CC(=O)C=C[C@]5(C)[C@@]4(F)[C@@H](O)C[C@]3(C)[C@]2(C(=O)CO)O1 [Fluocinolone acetonide]
induction of SOST expression by BMP-6 (BMP-induced SOST expression) (SOST expression): blocks | Results (effect on BMP-6 induction of SOST expression) (SOST expression; compound at 1 × 10^−7 M): Inhibition | Results (effect on BMP-6 induction of SOST expression) (SOST expression; compound at 1 × 10^−7 M, listed as Fluo): blocked | Results (effect on BMP-6 induction of SOST expression) (SOST expression; compound at 1 × 10^−7 M, listed as fluocinolone acetonide): effectively blocked

CCCCC[C@H](O)/C=C/[C@H]1[C@H](O)CC(=O)[C@@H]1C/C=C\CCCC(=O)O [Prostaglandin E2]
induction of SOST expression by BMP-6 (BMP-induced SOST expression) (SOST expression): blocks | Results (effect on BMP-6 induction of SOST expression) (SOST expression; compound at 1 × 10^−6 M): Inhibition | Results (effect on BMP-6 induction of SOST expression) (SOST expression; compound at 1 × 10^−6 M, listed as PGE2): blocked | Results (effect on BMP-6 induction of SOST expression) (SOST expression; compound at 1 × 10^−6 M, listed as prostaglandin E2): effectively blocked | Results (effect on BMP-6 induction of SOST expression) (SOST expression; compound at 1 × 10^−7 M): Inhibition

C[S+]([O-])c1ccc(-c2nc(-c3ccncc3)c(-c3ccc(F)cc3)[nH]2)cc1 (stereo not shown) [SB203580]
Results (effect on BMP-6 induction of SOST expression) (SOST expression; compound at 2 × 10^−6 M): No Effect

CC(=O)N[C@@H](CC(=O)O)C(=O)N[C@@H](CCC(=O)O)C(=O)N[C@H](C(=O)N[C@H](C=O)CC(=O)O)C(C)C [Caspase-3, Inhibitor I, reference compound]
human sclerostin-induced increase in caspase activity, effect of caspase inhibitors [1]: blocked | human sclerostin-induced increase in caspase activity, effect of caspase inhibitors ([1]; listed as Cas-3): efficiently blocked | human sclerostin-induced increase in caspase activity, effect of caspase inhibitors ([1]; listed as Caspase-3 inhibitor): effectively blocked

C[C@]12C=CC(=O)C=C1CC[C@H]1[C@@H]3C[C@@H](O)[C@](O)(C(=O)CO)[C@@]3(C)C[C@H](O)[C@@]12F [Triamcinolone]
induction of SOST expression by BMP-6 (BMP-induced SOST expression) (SOST expression): blocks | Results (effect on BMP-6 induction of SOST expression) (SOST expression; compound at 1 × 10^−7 M): blocked; also recorded: Inhibition | Results (effect on BMP-6 induction of SOST expression) (SOST expression; compound at 1 × 10^−7 M, listed as triamcinolone): blocked

Parathyroid Hormone (1-34): Calciotrophic Peptide (SVSEIQLMHNLGKHLNSMERVEWLRKKLQDVHNF; Parathyroid hormone; UniProt P01270 32-65, looked up, fragment)
Results (effect on BMP-6 induction of SOST expression) (SOST expression; compound at 1 × 10^−7 M): No Effect

COC(=O)C[C@H](NC(=O)[C@H](C)NC(=O)[C@@H](NC(=O)[C@H](Cc1ccc(O)cc1)NC(=O)OCc1ccccc1)C(C)C)C(=O)CF [Caspase-1, Inhibitor VI, reference compound]
human sclerostin-induced increase in caspase activity, effect of caspase inhibitors [1]: blocked | human sclerostin-induced increase in caspase activity, effect of caspase inhibitors ([1]; listed as Cas-1): efficiently blocked | human sclerostin-induced increase in caspase activity, effect of caspase inhibitors ([1]; listed as Caspase-1 inhibitor): effectively blocked

B1: inactivated sclerostin: inactive preparation of sclerostin, as determined by lack of effects in other biological and biochemical assays (protein, UniProt Q9BQB4 24-213, looked up)
Sclerostin: QGWQAFKNDATEIIPELGEYPEPPPELENNKTMNRAENGGRPPHHPFETKDVSEYSCRELHFTRYVTDGPCRSAKPVTELVCSGQCGPARLLPNAIGRGKWWRPSGPDFRCIPDRYRAQRVQLLCPGGEAPRARKVRLVASCKCKRLTRFHNQSELKDFGTEAARPQKGRKPRPRARSAKANQAELENAY
modifications: inactivated preparation
caspase activity [1]: no significant effect | caspase activity ([1]; listed as inactive preparation of sclerostin): did not significantly affect

B2: Tsg: twisted gastrulation, commercially available BMP antagonist (protein, UniProt Q9GZX9 26-223, looked up)
Twisted gastrulation protein …: CNKALCASDVSKCLIQELCQCRPGEGNCSCCKECMLCLGALWDECCDCVGMCNPRNYSDTPPTSKSTVEELHEPIPSLFRALTEGDTQLNWNIVSFPVAEELSHHENLVSFLETVNQPHHQNVSVPSNNVHAPYSSDKEHMCTVVYFDDCMSIHQCKISCESMGASKYRWFHNACCECIGPECIDYGSKTVKCMNCMF
caspase activity [1]: no increase; also recorded: no significant effect

B3: chordin: commercially available BMP antagonist (protein, UniProt Q9H2X0 27-955, looked up)
Chordin: AGPEPPVLPIRSEKEPLPVRGAAGCTFGGKVYALDETWHPDLGEPFGVMRCVLCACEAPQWGRRTRGPGRVSCKNIKPECPTPACGQPRQLPGHCCQTCPQERSSSERQPSGLSFEYPRDPEHRSYSDRGEPGAEERARGDGHTDFVALLTGPRSQAVARARVSLLRSSLRFSISYRRLDRPTRIRFSDSNGSVLFEHPAAPTQDGLVCGVWRAVPRLSLRLLRAEQLHVALVTLTHPSGEVWGPLIRHRALAAETFSAILTLEGPPQQGVGGITLLTLSDTEDSLHFLLLFRGLLEPRSGGLTQVPLRLQILHQGQLLRELQANVSAQEPGFAEVLPNLTVQEMDWLVLGELQMALEWAGRPGLRISGHIAARKSCDVLQSVLCGADALIPVQTGAAGSASLTLLGNGSLIYQVQVVGTSSEVVAMTLETKPQRRDQRTVLCHMAGLQPGGHTAVGICPGLGARGAHMLLQNELFLNVGTKDFPDGELRGHVAALPYCGHSARHDTLPVPLAGALVLPPVKSQAAGHAWLSLDTHCHLHYEVLLAGLGGSEQGTVTAHLLGPPGTPGPRRLLKGFYGSEAQGVVKDLEPELLRHLAKGMASLMITTKGSPRGELRGQVHIANQCEVGGLRLEAAGAEGVRALGAPDTASAAPPVVPGLPALAPAKPGGPGRPRDPNTCFFEGQQRPHGARWAPNYDPLCSLCTCQRRTVICDPVVCPPPSCPHPVQAPDQCCPVCPEKQDVRDLPGLPRSRDPGEGCYFDGDRSWRAAGTRWHPVVPPFGLIKCAVCTCKGGTGEVHCEKVQCPRLACAQPVRVNPTDCCKQCPVGSGAHPQLGDPMQADGPRGCRFAGQWFPESQSWHPSVPPFGEMSCITCRCGAGVPHCERDDCSLPLSCGSGKESRCCSRCTAHRRPAPETRTDPELEKEAEGS
caspase activity [1]: no increase; also recorded: no significant effect

B4: gremlin: commercially available BMP antagonist (protein, UniProt O60565 25-184, looked up)
Gremlin-1: KKKGSQGAIPPPDKAQHNDSEQTQSPQQPGSRNRGRGQGRGTAMPGEEVLESSQEALHVTERKYLKRDWCKTQPLKQTIHEEGCNSRTIINRFCYGQCNSFYIPRHIRKEEGSFQSCSFCKPKKFTTMMVTLNCPELQPPTKKKRVTRVKQCRCISIDLD
caspase activity [1]: no increase; also recorded: no significant effect
